Laboratory results published in patent publication US11999727B2 (Tango Therapeutics, Inc., priority 2020, dated 2024).

Legend:
[1] = test system: HAP1 MTAP-deleted cell line; test: Viability assay, MTAP-deleted cell line; format: cell-based; conditions: Homo sapiens, HAP1, viability assay, MTAP-deleted cell line; read-out: HAP1 MTAP deleted viability
Description: Table 1 additionally indicates IC50 values in a viability assay for the MTAP-deleted cell line (column 10), indicating the effect of treatment with compound on cell survival.

[2] = biological target: T1, PRMT5 (Homo sapiens, UniProt O14744); test: PRMT5 biochemical IC50 assay with MTA as cofactor; conditions: PRMT5, MTA as cofactor; read-out: MTA IC50
T1 construct: purchased Viva (custom protein)

[3] = test system: HAP1 MTAP-deleted cell line; test: SDMA in-cell western assay, HAP1 MTAP-deleted; format: cell-based; conditions: for IC50: Homo sapiens, HAP1, SDMA in-cell western, HAP1 MTAP-deleted, read-out: HAP 1 MTAP deleted IC50; for MTAP intact/deleted ratio: IC50 ratio HAP1 MTAP-intact / HAP1 MTAP-deleted, SDMA in-cell western
Procedure, shortened: (§1)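 Compounds were tested in HAP1 cells differing only in MTAP status (endogenous expression versus null). Cellular SDMA levels were then measured by in-cell western, giving an IC50 in each background.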

[4] = biological target: T1, PRMT5; test: PRMT5 biochemical IC50 assay with no cofactor; conditions: PRMT5, no cofactor; read-out: No Cofactor/rel IC50
Description: Table 1 indicates IC50 values (μM) against PRMT5 for exemplary compounds in the presence of SAM as cofactor, with no cofactor, and with MTA as cofactor, respectively (columns 4-6). […] Ki values can be calculated from the IC50 values as described in the Examples section. As detailed in the Examples section, for the assay performed in the presence of SAM, IC50=Ki×1.5 (Ki=IC50/1.5).

[5] = biological target: T1, PRMT5; test: PRMT5 biochemical IC50 assay with SAM as cofactor; conditions: PRMT5, SAM as cofactor; read-out: SAM IC50
[6] = test system: HAP1 MTAP-intact cell line; test: SDMA in-cell western assay, HAP1 MTAP-intact; format: cell-based; conditions: Homo sapiens, HAP1, SDMA in-cell western, HAP1 MTAP-intact; read-out: MTAP HAP1 intact IC50
Procedure, shortened: as §1

T1 sequence (O14744 whole entry): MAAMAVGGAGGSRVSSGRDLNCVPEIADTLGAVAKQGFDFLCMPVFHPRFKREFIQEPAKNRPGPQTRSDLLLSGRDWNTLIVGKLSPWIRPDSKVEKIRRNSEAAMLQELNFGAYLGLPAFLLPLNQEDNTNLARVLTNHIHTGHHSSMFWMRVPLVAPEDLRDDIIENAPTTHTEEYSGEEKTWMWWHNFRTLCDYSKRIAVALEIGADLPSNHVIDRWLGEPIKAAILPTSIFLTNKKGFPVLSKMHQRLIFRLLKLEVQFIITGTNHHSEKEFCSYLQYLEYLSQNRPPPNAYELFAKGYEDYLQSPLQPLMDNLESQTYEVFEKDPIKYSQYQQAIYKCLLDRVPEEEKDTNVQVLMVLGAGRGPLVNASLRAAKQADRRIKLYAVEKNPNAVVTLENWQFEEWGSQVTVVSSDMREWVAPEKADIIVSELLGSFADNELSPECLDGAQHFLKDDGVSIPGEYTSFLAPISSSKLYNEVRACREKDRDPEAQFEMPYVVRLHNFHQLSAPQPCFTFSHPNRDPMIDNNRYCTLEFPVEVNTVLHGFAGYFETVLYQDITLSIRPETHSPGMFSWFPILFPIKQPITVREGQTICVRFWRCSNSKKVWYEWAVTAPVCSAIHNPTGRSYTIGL
T1 sequence (Q9BQA1 whole entry partner): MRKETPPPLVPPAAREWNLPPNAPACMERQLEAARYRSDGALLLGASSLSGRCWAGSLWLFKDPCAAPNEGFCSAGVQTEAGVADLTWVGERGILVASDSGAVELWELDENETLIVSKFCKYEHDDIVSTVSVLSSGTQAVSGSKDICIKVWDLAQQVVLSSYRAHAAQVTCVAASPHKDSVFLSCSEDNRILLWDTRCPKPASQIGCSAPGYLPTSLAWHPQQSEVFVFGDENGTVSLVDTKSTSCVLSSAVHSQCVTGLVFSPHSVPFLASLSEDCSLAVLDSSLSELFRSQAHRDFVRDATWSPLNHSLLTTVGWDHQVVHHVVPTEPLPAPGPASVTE

IC50 [2] [nM]	IC50 [3] [nM]	IC50 [4] [nM]	IC50 [5] [nM]	IC50 [6] [nM]	Structure (SMILES)	IC50 [1] [nM]	MTAP intact/deleted ratio [3]
< 50	< 100	50 to 500	50 to 500	> 1000	COc1ncc(NC(=O)C(=O)N2C[C@H](C)CC[C@H]2c2ccn(-c3cc[nH]n3)n2)cc1C(N)=O (single isomer, unassigned) [Compound 894]	1000 to 10000	A (an IC50 ratio greater than or equal to 10 fold)
< 50	< 100	50 to 500	50 to 500	100 to 1000	Cc1cc(NC(=O)C(=O)N2C[C@H](C)CC[C@H]2c2cccc(S(C)(=O)=O)c2)cnc1N (single isomer, unassigned) [Compound 895]	1000 to 10000	B (an IC50 ratio greater than or equal to 3 fold but lower than 10 fold)
> 500	> 1000	> 500	> 500	> 1000	CCc1cc(NC(=O)C(=O)N2C[C@H](C)CC[C@H]2c2ccc3sc(NC)nc3c2)cnc1N (single isomer, unassigned) [Compound 896]	> 10000	B (an IC50 ratio greater than or equal to 3 fold but lower than 10 fold)
< 50	< 100	50 to 500	50 to 500	> 1000	C[C@H]1CC[C@H](c2cccc3[nH]ncc23)N(C(=O)C(=O)Nc2cncc(C(N)=O)c2)C1 (single isomer, unassigned) [Compound 897]	1000 to 10000	A (an IC50 ratio greater than or equal to 10 fold)
< 50	100 to 1000	50 to 500	50 to 500	> 1000	C[C@@H]1CC[C@@H](c2ccn(-c3cc[nH]n3)n2)N(C(=O)C(=O)Nc2cncc(C(N)=O)c2)C1 (single isomer, unassigned) [Compound 899]	1000 to 10000	A (an IC50 ratio greater than or equal to 10 fold)
> 500	> 1000	> 500	> 500	> 1000	Cc1cc(NC(=O)C(=O)N2C[C@H](C)CC[C@H]2c2ccc(-c3cncs3)cc2)cnc1N (single isomer, unassigned) [Compound 900, N-(6-amino-5-methylpyridin-3-yl)-2-(5-methyl-2-(4-(thiazol-5-yl)phenyl)piperidin-1-yl)-2-oxoacetamide]	> 10000	C (an IC50 ratio of less than 3 fold)
> 500	> 1000	> 500	> 500	> 1000	Cc1cc(NC(=O)C(=O)N2C[C@@H](C)CC[C@@H]2c2cccc(S(C)(=O)=O)c2)cnc1N (single isomer, unassigned) [Compound 901]	> 10000	C (an IC50 ratio of less than 3 fold)
< 50	< 100	< 50	50 to 500	100 to 1000	CCc1cc(NC(=O)C(=O)N2C[C@@H](C)CC[C@@H]2c2ccc(NS(C)(=O)=O)cc2)cnc1N (single isomer, unassigned) [Compound 902]	< 1000	A (an IC50 ratio greater than or equal to 10 fold)
> 500	> 1000	> 500	> 500	> 1000	Cc1ncc(NC(=O)C(=O)N2C[C@@H](C)CC[C@@H]2c2ccc3c(c2)CCC(=O)N3)cc1C(F)F (single isomer, unassigned) [Compound 903]	> 10000	B (an IC50 ratio greater than or equal to 3 fold but lower than 10 fold)
< 50	< 100	50 to 500	50 to 500	> 1000	COc1ncc(NC(=O)C(=O)N2C[C@@H](C)C(F)(F)C[C@@H]2c2ccc(C)nc2)cc1C(N)=O (single isomer, unassigned) [Compound 908]	1000 to 10000	A (an IC50 ratio greater than or equal to 10 fold)
> 500	> 1000	> 500	> 500	> 1000	COc1ncc(NC(=O)C(=O)N2C[C@@H](C)CC[C@@H]2c2ccc(NC(C)=O)nc2)cc1C(N)=O (single isomer, unassigned) [Compound 910]	> 10000	B (an IC50 ratio greater than or equal to 3 fold but lower than 10 fold)
> 500	> 1000	> 500	> 500	> 1000	CCc1cc(NC(=O)C(=O)N2C[C@@H](C)CC[C@@H]2c2ccn(-c3cc[nH]n3)n2)cnc1N (single isomer, unassigned) [Compound 913]	> 10000	C (an IC50 ratio of less than 3 fold)
< 50	< 100	< 50	50 to 500	100 to 1000	COc1ncc(NC(=O)C(=O)N2C[C@@H](C)CC[C@@H]2c2ccc3cnccc3c2)cc1C(N)=O (single isomer, unassigned) [Compound 914]	< 1000	A (an IC50 ratio greater than or equal to 10 fold)
< 50	< 100	< 50	50 to 500	100 to 1000	CC(=O)Nc1ccc([C@H]2CC[C@H](C)CN2C(=O)C(=O)Nc2cnc(N)c(C)c2)cn1 (single isomer, unassigned) [Compound 915]	1000 to 10000	A (an IC50 ratio greater than or equal to 10 fold)
< 50	< 100	< 50	50 to 500	> 1000	COc1ncc(NC(=O)C(=O)N2C[C@H](C)CC[C@H]2c2ccc3[nH]c(C)nc3c2)cc1C(N)=O (single isomer, unassigned) [Compound 917]	1000 to 10000	A (an IC50 ratio greater than or equal to 10 fold)
< 50	< 100	50 to 500	50 to 500	> 1000	COc1ncc(NC(=O)C(=O)N2C[C@@H](C)CC[C@@H]2c2cccc3[nH]ncc23)cc1C(N)=O (single isomer, unassigned) [Compound 918]	< 1000	A (an IC50 ratio greater than or equal to 10 fold)
< 50	< 100	< 50	50 to 500	100 to 1000	CCc1cc(NC(=O)C(=O)N2C[C@H](C)CC[C@H]2c2ccc3cnccc3c2)cnc1N (single isomer, unassigned) [Compound 919]	< 1000	A (an IC50 ratio greater than or equal to 10 fold)
> 500	> 1000	> 500	> 500	> 1000	CCc1cc(NC(=O)C(=O)N2C[C@H](C)CC[C@H]2c2ccc(NC(C)=O)nc2)cnc1N (single isomer, unassigned) [Compound 921]	> 10000	B (an IC50 ratio greater than or equal to 3 fold but lower than 10 fold)
> 500	> 1000	> 500	> 500	> 1000	COc1ncc(NC(=O)C(=O)N2C[C@@H](C)CC[C@@H]2c2ccc3[nH]c(C)nc3c2)cc1C(N)=O (single isomer, unassigned) [Compound 924]	> 10000	B (an IC50 ratio greater than or equal to 3 fold but lower than 10 fold)
< 50	< 100	< 50	50 to 500	100 to 1000	CCc1cc(NC(=O)C(=O)N2C[C@@H](C)CC[C@@H]2c2ccc(NC(C)=O)nc2)cnc1N (single isomer, unassigned) [Compound 925]	< 1000	A (an IC50 ratio greater than or equal to 10 fold)
> 500	> 1000	> 500	> 500	> 1000	COc1ncc(NC(=O)C(=O)N2C[C@H](C)CC[C@H]2c2cccc3[nH]ncc23)cc1C(N)=O (single isomer, unassigned) [Compound 926]	> 10000	C (an IC50 ratio of less than 3 fold)
> 500	> 1000	> 500	> 500	> 1000	CC(=O)Nc1ccc([C@@H]2CC[C@@H](C)CN2C(=O)C(=O)Nc2cnc(N)c(C)c2)cn1 (single isomer, unassigned) [Compound 927]	> 10000	C (an IC50 ratio of less than 3 fold)
